Reference: paper PMC8268887, “Peptide/β-Peptoid Hybrids with Ultrashort PEG-Like Moieties: Effects on Hydrophobicity, Antibacterial Activity and Hemolytic Properties” (International Journal of Molecular Sciences, 2021)
Values after ≈ are worked out from the molar mass of the structure shown. Read-outs that look alike come from different tables or passages of the source.

Key:
[1] = Hydrophobicity by retention in analytical RP-HPLC (% MeCN at peak elution); assay type: physicochemical; settings: for % MeCN at Elution, Aeris Peptide: Phenomenex Aeris Peptide XB-C18 column; for % MeCN at Elution, Aeris Peptide / % MeCN at Elution, Luna Omega / % MeCN at Elution, Supelco Discovery: gradient 0→60% B during 15 min; for % MeCN at Elution, Luna: Phenomenex Luna C18(2) column, RP-HPLC gradient 0→60% B during 15 min, relative hydrophobicity; for % MeCN at Elution, Luna Omega: Phenomenex Luna Omega Polar C18 column; for % MeCN at Elution, Supelco Discovery: Supelco Discovery BIO Wide pore C18 column
Procedure: For each peptide/β-peptoid hybrid oligomer, the retention time in RP-HPLC was measured on four different columns (details shown in Table 2): Phenomenex Luna C18(2) column (recommended for hydrophobic compounds [49]), Phenomenex Luna Omega Polar C18 column (recommended for both very polar and non-polar compounds [50]) as well as Phenomenex Aeris Peptide XB-C18 [51] and Sigma-Aldrich Supelco Discovery BIO Wide pore C18 [52] columns, which both are recommended for analysis of peptides. The retention times of the compounds on each column were used to calculate the acetonitrile concentration at peak elution (denoted merely as % MeCN; Table 1). As expected, the % MeCN for each compound varied somewhat between the four columns.
Starting materials and solvents were acquired from commercial suppliers (Iris Biotech, Markredwitz, Germany; Fluorochem, Hadfield, UK; and Merck, Darmstadt, Germany) and used without further purification. Water used for analytical and preparative high-performance liquid chromatography (HPLC) was filtered through a 0.22-μm capsule filter using an Evoqua LaboStar Pro TWF UV system. Purity and retention time of each peptidomimetic were determined by analytical HPLC by using a Phenomenex Luna Omega Polar C18 column (150 × 4.6 mm; particle size: 3 μm; pore size: 100 Å) on a Shimadzu Prominence and Shimadzu Nexera system using an aqueous acetonitrile (MeCN, VWR, Søborg, Denmark) gradient with 0.1% trifluoroacetic acid (TFA, Iris Biotech, Markredwitz, Germany) added (eluent A: 5:95 MeCN–H2O + 0.1% TFA, eluent B: 95:5 MeCN–H2O + 0.1% TFA); a flow rate of 0.8 mL/min was used. For elution of peptidomimetics, a linear gradient of 0% to 60% B during 15 min was used with UV detection at λ = 220 nm. […] Retention time of each peptidomimetic was also determined by using a Phenomenex Luna C18(2) column (150 × 4.6 mm; particle size: 3 μm; pore size: 100 Å), a Phenomenex Aeris Peptide XB-C18 column (150 × 4.6 mm; particle size: 3.6 μm; pore size: 100 Å), and a Sigma-Aldrich Supelco Discovery BIO Wide pore C18 column (150 × 4.6 mm, particle size: 3 µm; pore size: 300 Å). For each peptidomimetic, the percentage of MeCN at peak elution was calculated from the retention time by using the following formula:(1) %MeCN =0.95 (0.6Rt/15 min)+0.05 (1−0.6Rt/15 min)

E. coli ATCC 25922 = assay type: cell-based, Escherichia coli; settings: ATCC 25922, 20 h
Procedure: (§1) MIC values of the peptidomimetics were evaluated by using the modified Hancock lab protocol in non-binding polystyrene microtiter plates. Bacterial suspensions of ~5 × 10^5 CFU/mL in Mueller-Hinton broth (Difco, Sparks, MD, USA) were prepared with Mg^2+ and Ca^2+ concentrations of 4 mg/L each. The compounds were dissolved in H2O and diluted in 0.01% acetic acid, 0.2% BSA (final concentration). Aliquots (11 µL) of test compounds were then transferred to wells containing bacterial suspensions (100 µL). Low-binding sterile tubes and tips (Axygen, Union City, CA, USA) were used for preparation and transfer of the solutions of the compounds. Following incubation for 20 h of the covered plates at 35 °C (±2 °C) with circular shaking at 180 rpm, the MICs were read.

E. coli NMI 3371/16 = assay type: cell-based, Escherichia coli; settings: NMI 3371/16, 20 h
Procedure: as §1

E. coli NMI 3898/15 = assay type: cell-based, Escherichia coli; settings: NMI 3898/15, 20 h
Procedure: as §1

E. faecalis ATCC 29212 = assay type: cell-based; settings: ATCC 29212, 20 h
Procedure: as §1

K. pneumoniae ATCC 13883 = assay type: cell-based; settings: ATCC 13883, 20 h
Procedure: as §1

[2] = test system: P. aeruginosa NMI 7197/19; assay type: cell-based, Pseudomonas aeruginosa; settings: NMI 7197/19, 20 h
Procedure: as §1

P. aeruginosa PAO1 = assay type: cell-based, Pseudomonas aeruginosa
Procedure: as §1

A. baumannii NMI 3658/17 = assay type: cell-based, Acinetobacter baumannii; settings: NMI 3658/17, 20 h
Procedure: as §1

S. aureus ATCC 29213 = assay type: cell-based, Staphylococcus aureus; settings: ATCC 29213, 20 h
Procedure: as §1

[3] = Determination of hemolytic activity; assay type: cell-based; settings: red blood cell suspension in PBS buffer, human red blood cells at 400 µg/mL, 37 °C
Procedure: The lysis of human red blood cells was measured almost as previously described, albeit with modifications. In brief, a suspension of freshly drawn human red blood cells (hRBCs) was washed three times with PBS buffer and centrifuged two times for 5 min at 2500 rpm. A two-fold serial dilution of compounds in PBS buffer was prepared. Plates (conical-bottomed 96-well plates) with three replicate wells per dilution, each containing 1% red blood cell suspension, were prepared and dosed with the test compound to achieve a final concentration of 400 μg/mL in a total volume of 100 μL. The plates were incubated (37 °C) for 60 min with mild agitation, and then the cells were pelleted by centrifugation at 1500 rpm for 5 min. The supernatants (50 μL) were then transferred to a fresh 96-well plate, and the concentration of hemoglobin was detected by measuring the OD at 405 nm. The OD of cells incubated with 1% SDS defined 100% hemolysis, while the OD of cells incubated with PBS buffer defined 0% hemolysis. The concentration tested was 400 μg/mL (only average values are stated in Table 5). The percent hemolysis was calculated by using the formula:(3) Hemolysis (%)=100×[Asample−Aneg.control/Apos.control−Aneg.control]

A. baumannii ATCC 19606 = assay type: cell-based, Acinetobacter baumannii; settings: ATCC 19606, 20 h
Procedure: as §1

Structure (SMILES) | % MeCN at Elution, Aeris Peptide [1] [% MeCN] | % MeCN at Elution, Luna [1] [% MeCN] | % MeCN at Elution, Luna Omega [1] [% MeCN] | % MeCN at Elution, Supelco Discovery [1] [% MeCN] | MIC, EC (E. coli ATCC 25922) [µg/mL] | MIC, E. coli NMI 3371/16 (E. coli NMI 3371/16) [µg/mL] | MIC, E. coli NMI 3898/15 (E. coli NMI 3898/15) [µg/mL] | MIC, EF (E. faecalis ATCC 29212) [µg/mL] | MIC, KP (K. pneumoniae ATCC 13883) [µg/mL] | MIC, P. aeruginosa NMI 7197/19 [2] [µg/mL] | MIC, PA (P. aeruginosa PAO1; P. aeruginosa PAO1 (WT)) [µg/mL] | MIC, A. baumannii NMI 3658/17 (A. baumannii NMI 3658/17) [µg/mL] | MIC, SA (S. aureus ATCC 29213) [µg/mL] | hemolysis at 60 min [3] [%] | MIC, PA (P. aeruginosa PAO1; PAO1, 20 h) [µg/mL] | MIC, AB (A. baumannii ATCC 19606) [µg/mL]
NCCCC[C@H](NC(=O)CCN(Cc1ccc(F)cc1)C(=O)[C@H](CCCCN)NC(=O)CCN(Cc1ccc(F)cc1)C(=O)[C@H](CCCCN)NC(=O)CCN(Cc1ccc(F)cc1)C(=O)[C@H](CCCCN)NC(=O)CCN(Cc1ccc(F)cc1)C(=O)[C@H](CCCCN)NC(=O)CCN(Cc1ccc(F)cc1)C(=O)[C@H](CCCCN)NC(=O)CCOCCOCCOCCOCCN)C(=O)N(CCC(=O)NCCOCCOCCOCCOCCC(N)=O)Cc1ccc(F)cc1 [Compound 5, H-sPEG4-[X]6-sPEG4-NH2] | 40.0 | 42.2 | 43.2 | 42.5 | 16 (≈ 6.79 µM) | 8 to 16 | 32 (≈ 13.6 µM) | >64 | >64 | >64 | > 64 | 16 (≈ 6.79 µM) | >64 | 6.4 |  | 
NCCCC[C@H](NC(=O)CCN(Cc1ccc(F)cc1)C(=O)[C@H](CCCCN)NC(=O)CCN(Cc1ccc(F)cc1)C(=O)[C@H](CCCCN)NC(=O)CCN(Cc1ccc(F)cc1)C(=O)[C@H](CCCCN)NC(=O)CCN(Cc1ccc(F)cc1)C(=O)[C@H](CCCCN)NC(=O)CCN(Cc1ccc(F)cc1)C(=O)[C@H](CCCCN)NC(=O)COCCOCCN)C(=O)N(CCC(N)=O)Cc1ccc(F)cc1 [Compound 2, H-sPEG2-[X]6-NH2] | 39.4 | 41.4 | 41.9 | 41.5 | 8 (≈ 3.99 µM) | 8 (≈ 3.99 µM) | 16 (≈ 7.97 µM) | >64 | >64 | >64 |  | 4 (≈ 1.99 µM) | 32 to 64 | 2.4 | 32 (≈ 15.9 µM) | 4 (≈ 1.99 µM)
NCCCC[C@H](NC(=O)CCN(Cc1ccc(F)cc1)C(=O)[C@H](CCCCN)NC(=O)CCN(Cc1ccc(F)cc1)C(=O)[C@H](CCCCN)NC(=O)CCN(Cc1ccc(F)cc1)C(=O)[C@H](CCCCN)NC(=O)CCN(Cc1ccc(F)cc1)C(=O)[C@H](CCCCN)NC(=O)CCN(Cc1ccc(F)cc1)C(=O)[C@H](CCCCN)NC(=O)CCOCCOCCOCCOCCN)C(=O)N(CCC(N)=O)Cc1ccc(F)cc1 [Compound 3, H-sPEG4-[X]6-NH2] | 39.6 | 41.9 | 42.4 | 42.6 | 8 (≈ 3.79 µM) | 8 (≈ 3.79 µM) | 16 (≈ 7.59 µM) | >64 | >64 | >64 |  | 4 to 8 |  | 8.1 | 32 to 64 | 4 to 8
NCCCC[C@H](NC(=O)CCN(Cc1ccc(F)cc1)C(=O)[C@H](CCCCN)NC(=O)CCN(Cc1ccc(F)cc1)C(=O)[C@H](CCCCN)NC(=O)CCN(Cc1ccc(F)cc1)C(=O)[C@H](CCCCN)NC(=O)CCN(Cc1ccc(F)cc1)C(=O)[C@H](CCCCN)NC(=O)CCN(Cc1ccc(F)cc1)C(=O)[C@H](CCCCN)NC(=O)COCCOCCN)C(=O)N(CCC(=O)NCCOCCOCC(N)=O)Cc1ccc(F)cc1 [Compound 4, H-sPEG2-[X]6-sPEG2-NH2] | 39.2 | 41.3 | 42.1 | 41.4 | 8 to 16 | 8 to 16 | 16 to 32 | >64 | >64 | >64 |  | 4 to 8 | >64 | 5.4 | 16 (≈ 7.44 µM) | 4 (≈ 1.86 µM)
